Measurements reported in PubChem BioAssay (NCI).
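Five compound concentrations were applied to cells in 96-well plates for 48 hours; endpoints were derived by simple linear interpolation of the resulting dose-response curve. At the GI50, growth is halved. TGI marks complete inhibition of growth.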

Key:
Assay in all cases: NCI anticancer screen, dose series, 48 h
[1] = tested on: 786-0 renal
[2] = tested on: A498 renal
[3] = tested on: A549 NSCLC
[4] = tested on: ACHN renal
[5] = tested on: CAKI-1 renal
[6] = tested on: CCRF-CEM leukemia
[7] = tested on: COLO 205 colon
[8] = tested on: DU-145 prostate
[9] = tested on: EKVX NSCLC
[10] = tested on: HCC-2998 colon
[11] = tested on: HCT-116 colon
[12] = tested on: HCT-15 colon
[13] = tested on: HL-60(TB) leukemia
[14] = tested on: HOP-62 NSCLC
[15] = tested on: HOP-92 NSCLC
[16] = tested on: HS 578T breast
[17] = tested on: HT29 colon
[18] = tested on: IGROV1 ovarian
[19] = tested on: K-562 leukemia
[20] = tested on: KM12 colon
[21] = tested on: LOX IMVI melanoma
[22] = tested on: M14 melanoma
[23] = tested on: MALME-3M melanoma
[24] = tested on: MCF7 breast
[25] = tested on: MDA-MB-231 breast
[26] = tested on: MDA-MB-435
[27] = tested on: MOLT-4 leukemia
[28] = tested on: NCI-H226 lung
[29] = tested on: NCI-H460 lung
[30] = tested on: NCI-H522 lung
[31] = tested on: NCI/ADR-RES ovarian
[32] = tested on: OVCAR-3 ovarian
[33] = tested on: OVCAR-4 ovarian
[34] = tested on: OVCAR-5 ovarian
[35] = tested on: PC-3 prostate
[36] = tested on: RPMI-8226 leukemia
[37] = tested on: RXF 393 renal
[38] = tested on: SF-268 CNS
[39] = tested on: SF-295 CNS
[40] = tested on: SF-539 CNS
[41] = tested on: SK-MEL-2 melanoma
[42] = tested on: SK-MEL-28 melanoma
[43] = tested on: SK-OV-3 ovarian
[44] = tested on: SN12C renal
[45] = tested on: SNB-19 CNS
[46] = tested on: SNB-75 CNS
[47] = tested on: SR leukemia
[48] = tested on: SW-620 colon
[49] = tested on: T-47D breast
[50] = tested on: TK-10 renal
[51] = tested on: U251 CNS
[52] = tested on: UACC-257 melanoma
[53] = tested on: UACC-62 melanoma
[54] = tested on: UO-31 renal
[55] = tested on: BT-549 breast
[56] = tested on: OVCAR-8 ovarian
[57] = tested on: SK-MEL-5 melanoma

NC(=O)c1cc(-c2ccc3ncnc(N4CCc5cc(F)c(Cl)cc54)c3c2)cnc1N
GI50 [1]: 1.19 µM | TGI [1]: 10.4 µM | GI50 [2]: 0.336 µM | TGI [2]: 2.46 µM | GI50 [3]: 1.05 µM | TGI [3]: 13.4 µM | GI50 [4]: 0.801 µM | TGI [4]: 17 µM | GI50 [5]: 0.529 µM | TGI [5]: 17 µM | GI50 [6]: 2.95 µM | TGI [6]: 34.8 µM | GI50 [7]: 2.7 µM | TGI [7]: 21.4 µM | GI50 [8]: 1.79 µM | TGI [8]: 27.4 µM | GI50 [9]: 0.806 µM | TGI [9]: 15.3 µM | GI50 [10]: 1.68 µM | TGI [10]: 7.09 µM | GI50 [11]: 1.22 µM | TGI [11]: 2.81 µM | GI50 [12]: 2.02 µM | TGI [12]: > 100 µM | GI50 [13]: 0.573 µM | TGI [13]: 6.18 µM | GI50 [14]: 1.37 µM | TGI [14]: 7.22 µM | GI50 [15]: 0.231 µM | TGI [15]: 2.63 µM | GI50 [16]: 0.839 µM | TGI [16]: 7.65 µM | GI50 [17]: 1.14 µM | TGI [17]: 9.76 µM | GI50 [18]: 0.279 µM | TGI [18]: 1.62 µM | GI50 [19]: 3.35 µM | TGI [19]: > 100 µM | GI50 [20]: 2.33 µM | TGI [20]: 10.9 µM | GI50 [21]: 1.69 µM | TGI [21]: 12.3 µM | GI50 [22]: 2.84 µM | TGI [22]: 41.4 µM | GI50 [23]: 1.51 µM | TGI [23]: 15.2 µM | GI50 [24]: 0.317 µM | TGI [24]: 2.15 µM | GI50 [25]: 2.02 µM | TGI [25]: 16.2 µM | GI50 [26]: 2.3 µM | TGI [26]: > 100 µM | GI50 [27]: 1.25 µM | TGI [27]: 6.23 µM | GI50 [28]: 3.04 µM | TGI [28]: 33.1 µM | GI50 [29]: 1.3 µM | TGI [29]: 3.96 µM | GI50 [30]: 1.55 µM | TGI [30]: 4.72 µM | GI50 [31]: 3.22 µM | TGI [31]: > 100 µM | GI50 [32]: 1.67 µM | TGI [32]: 10 µM | GI50 [33]: 1.28 µM | TGI [33]: 2.95 µM | GI50 [34]: 1.82 µM | TGI [34]: 47.9 µM | GI50 [35]: 0.976 µM | TGI [35]: 5.27 µM | GI50 [36]: 1.39 µM | TGI [36]: 11.3 µM | GI50 [37]: 0.656 µM | TGI [37]: 2.59 µM | GI50 [38]: 1.88 µM | TGI [38]: 49.8 µM | GI50 [39]: 1.47 µM | TGI [39]: 4.26 µM | GI50 [40]: 1.49 µM | TGI [40]: 3.56 µM | GI50 [41]: 1.54 µM | TGI [41]: 4.02 µM | GI50 [42]: 2.67 µM | TGI [42]: 28.5 µM | GI50 [43]: 1.09 µM | TGI [43]: 4.18 µM | GI50 [44]: 1.03 µM | TGI [44]: 25 µM | GI50 [45]: 1.82 µM | TGI [45]: > 100 µM | GI50 [46]: 0.524 µM | TGI [46]: 5.8 µM | GI50 [47]: 1.87 µM | TGI [47]: 16.2 µM | GI50 [48]: 2.41 µM | TGI [48]: 19.4 µM | GI50 [49]: 0.273 µM | TGI [49]: 2.36 µM | GI50 [50]: 0.519 µM | TGI [50]: 27.9 µM | GI50 [51]: 2.44 µM | TGI [51]: 18.8 µM | GI50 [52]: 2.83 µM | TGI [52]: > 100 µM | GI50 [53]: 1.62 µM | TGI [53]: 18.3 µM | GI50 [54]: 0.311 µM | TGI [54]: 10.6 µM

CN(C)CCCNc1c2ccccc2nc2c1oc1ccc(Cl)cc12
GI50 [1]: 3.22 µM | TGI [1]: 14.4 µM | GI50 [2]: 9.15 µM | TGI [2]: 22.9 µM | GI50 [3]: 3.43 µM | TGI [3]: 15.3 µM | GI50 [4]: 1.76 µM | TGI [4]: 15.6 µM | GI50 [55]: 3.76 µM | TGI [55]: 14.3 µM | GI50 [5]: 2.32 µM | TGI [5]: 13.3 µM | GI50 [6]: 2.21 µM | TGI [6]: 12.6 µM | GI50 [7]: 1.94 µM | TGI [7]: 9.57 µM | GI50 [8]: 4.1 µM | TGI [8]: 16.6 µM | GI50 [9]: 5.22 µM | TGI [9]: 18.6 µM | GI50 [10]: 1.43 µM | TGI [10]: 3.73 µM | GI50 [11]: 0.949 µM | TGI [11]: 2.32 µM | GI50 [12]: 1.45 µM | TGI [12]: 6.5 µM | GI50 [13]: 2.71 µM | TGI [13]: 10.1 µM | GI50 [14]: 4.08 µM | TGI [14]: 17 µM | GI50 [15]: 1.37 µM | TGI [15]: 6.59 µM | GI50 [16]: 4.65 µM | TGI [16]: 21.3 µM | GI50 [17]: 1.03 µM | TGI [17]: 2.94 µM | GI50 [18]: 3.68 µM | TGI [18]: 16.2 µM | GI50 [19]: 1.25 µM | TGI [19]: 11.3 µM | GI50 [20]: 2.75 µM | TGI [20]: 14.9 µM | GI50 [21]: 1.64 µM | TGI [21]: 3.33 µM | GI50 [22]: 1.75 µM | TGI [22]: 4.2 µM | GI50 [23]: 4.5 µM | TGI [23]: 17.1 µM | GI50 [24]: 1.23 µM | TGI [24]: 4.59 µM | GI50 [25]: 2 µM | TGI [25]: 5.69 µM | GI50 [26]: 3.91 µM | TGI [26]: 16.1 µM | GI50 [27]: 0.521 µM | TGI [27]: 18.9 µM | GI50 [28]: 4.18 µM | TGI [28]: 18.2 µM | GI50 [29]: 1.05 µM | TGI [29]: 4.79 µM | GI50 [30]: 3.73 µM | TGI [30]: 16.6 µM | GI50 [31]: 1.52 µM | TGI [31]: 10.8 µM | GI50 [32]: 6.44 µM | TGI [32]: 20.2 µM | GI50 [33]: 2.83 µM | TGI [33]: 14 µM | GI50 [34]: 5.24 µM | TGI [34]: 18.8 µM | GI50 [56]: 3.75 µM | TGI [56]: 20.2 µM | GI50 [35]: 3.92 µM | TGI [35]: 15.8 µM | GI50 [36]: 2.66 µM | GI50 [37]: 1.95 µM | TGI [37]: 6.74 µM | GI50 [38]: 3.06 µM | TGI [38]: 16.5 µM | GI50 [39]: 4.6 µM | TGI [39]: 17.3 µM | GI50 [40]: 3.31 µM | TGI [40]: 12.7 µM | GI50 [41]: 4.2 µM | TGI [41]: 16.4 µM | GI50 [42]: 4.48 µM | TGI [42]: 16.2 µM | GI50 [57]: 12.5 µM | TGI [57]: 25 µM | GI50 [43]: 4.53 µM | TGI [43]: 17.3 µM | GI50 [44]: 2.58 µM | TGI [44]: 13.1 µM | GI50 [45]: 4.95 µM | TGI [45]: 18.4 µM | GI50 [46]: 3.67 µM | TGI [46]: 17.4 µM | GI50 [47]: 2.19 µM | TGI [47]: 10.1 µM | GI50 [48]: 0.777 µM | TGI [48]: 8.63 µM | GI50 [49]: 6.18 µM | TGI [49]: 19.9 µM | GI50 [50]: 7.35 µM | TGI [50]: 20.1 µM | GI50 [51]: 3.69 µM | TGI [51]: 16.4 µM | GI50 [52]: 4.65 µM | TGI [52]: 17.2 µM | GI50 [53]: 10.9 µM | TGI [53]: 24.5 µM | GI50 [54]: 3.15 µM | TGI [54]: 15.1 µM
